Measured values taken from patent publication EP1734039A1, “Aryl urea compounds as BETA-secretase inhibitors” (Esbatech AG, priority 2005, dated 2006).

How the values were obtained:
[1] = biological target: recombinant BACE enzyme (Homo sapiens, UniProt P56817); assay: FRET assay (in vitro); format: biochemical; conditions: for IC50: concentration that reduces the activity of BACE to 50 %
[2] = tested on: SEAP-APP(Sw)695 fusion protein; assay: SEAP bioassay (cell-based, luminescence readout); conditions: transiently transfected HEK293 cells; for IC50: Homo sapiens, concentration that reduces secreted SEAP activity to 50 %
Text: (§1) The tests performed were a) Aβ1-40 (Sw) bioassay, which measures the amount of the amyoid peptide Aβ1-40 in the supernatant of Swedish APP695 transgenic HEK293 cells in the presence of the various BACE inhibitors via ELISA (enzyme-linked immunosorbent assay). […] A SEAP-APP(Sw)695 fusion protein is transiently expressed in HEK293 cells in the presence of the various BACE inhibitors. Secretion of the SEAP moiety upon cleavage at the APP β-site is quantitated via a luminescence readout. […] The compounds were docked with the FFLD approach (Budin et al., Biol. Chem. 382, 1365-1372, 2001) and their binding energy was evaluated with the LIECE method (Huang and Caflisch, J. Med. Chem. 47, 5791-5797, 2004). The affinity evaluated with LIECE is in the low micromolar range for most of these compounds.

[3] = tested on: Aβ1-40 secretion; assay: Aβ1-40 (Sw) bioassay (cell-based, ELISA); conditions: for IC50: Homo sapiens, concentration that reduces Aβ1-40 secretion to 50 %, supernatant of Swedish APP695 transgenic HEK293 cells
Text: as §1

recombinant BACE enzyme, sequence (P56817 46-501): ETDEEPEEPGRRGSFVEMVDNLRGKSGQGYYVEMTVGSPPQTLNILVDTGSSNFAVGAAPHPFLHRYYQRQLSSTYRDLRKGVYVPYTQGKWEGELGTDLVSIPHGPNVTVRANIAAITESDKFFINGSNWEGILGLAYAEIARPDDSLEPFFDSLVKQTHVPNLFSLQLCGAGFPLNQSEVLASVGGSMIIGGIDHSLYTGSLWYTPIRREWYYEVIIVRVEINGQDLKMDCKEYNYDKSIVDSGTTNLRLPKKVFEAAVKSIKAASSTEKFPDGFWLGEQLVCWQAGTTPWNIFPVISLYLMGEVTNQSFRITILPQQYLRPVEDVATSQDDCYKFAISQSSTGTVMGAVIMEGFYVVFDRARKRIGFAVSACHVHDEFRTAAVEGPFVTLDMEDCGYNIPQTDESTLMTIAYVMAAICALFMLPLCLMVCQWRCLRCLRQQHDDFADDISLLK

## CCCNC(=O)c1cc(NC(=O)Nc2ccc(CC)cc2)ccc1N(C)C [Compound A11]
[1]; at 200 µM
  % reduction of the activity of BACE: 20 (200 µM) %
[2]; at 6 µM
  % reduction of secreted SEAP activity: 0 (6 µM) %
[3]
  IC50: 5.2 µM

## Cc1cccc(NC(=O)Nc2ccc(N(C)C)c(C(=O)NCCc3ccccc3)c2)c1 [Compound A8]
[1]; at 100 µM
  % reduction of the activity of BACE: 35 (100 µM) %
[2]; at 3 µM
  % reduction of secreted SEAP activity: 14 (3 µM) %
[3]
  IC50: 5.6 µM

## Cc1cccc(NC(=O)NCC2CCN(c3ccc(S(=O)(=O)N4CCOCC4)cc3)CC2)c1 [Compound C3]
[1]; at 50 µM
  % reduction of the activity of BACE: 0 (50 µM) %
[2]; at 12.5 µM
  % reduction of secreted SEAP activity: 0 (12.5 µM) %
[3]
  IC50: 22 µM

## CCSc1nsc(NC(=O)Nc2cccc(C(C)=O)c2)n1 [Compound B3]
[2]
  IC50: 10 µM
[3]
  IC50: 1.6 µM

## COc1cc(NC(=O)Nc2ccc(N(C)C)c(C(=O)NCc3ccc(F)cc3)c2)cc(OC)c1 [Compound A10]
[1]
  IC50: 64 µM
[2]; at 1.6 µM
  % reduction of secreted SEAP activity: 10 (1.6 µM) %
[3]
  IC50: 3.1 µM

## CSc1nnc(CCNC(=O)Nc2ccc(Cl)c(C(F)(F)F)c2)n1C(C)C [Compound B2]
[1]; at 250 µM
  % reduction of the activity of BACE: 0 (250 µM) %
[2]; at 12.5 µM
  % reduction of secreted SEAP activity: 0 (12.5 µM) %
[3]
  IC50: 40 µM

## CCOCCCNC(=O)c1cc(NC(=O)Nc2ccccc2Br)ccc1N(C)C [Compound A14]
[1]; at 100 µM
  % reduction of the activity of BACE: 0 (100 µM) %
[2]; at 6 µM
  % reduction of secreted SEAP activity: 0 (6 µM) %
[3]
  IC50: 7.8 µM

## Cc1ccc(NC(=O)Nc2ccc(N(C)C)c(C(=O)NCCCN3CCOCC3)c2)cc1C [Compound A6]
[1]; at 100 µM
  % reduction of the activity of BACE: 21 (100 µM) %
[2]; at 12.5 µM
  % reduction of secreted SEAP activity: 19 (12.5 µM) %
[3]
  IC50: 23 µM

## CCCNC(=O)c1cc(NC(=O)Nc2cccc(OC)c2)ccc1N(C)C [Compound A5]
[1]; at 100 µM
  % reduction of the activity of BACE: 16 (100 µM) %
[2]; at 6 µM
  % reduction of secreted SEAP activity: 0 (6 µM) %
[3]
  IC50: 14.3 µM

## COc1cccc(NC(=O)Nc2nnc(C(C)Oc3ccccc3)s2)c1 (stereo not drawn) [Compound B4]
[1]; at 500 µM
  % reduction of the activity of BACE: 0 (500 µM) %
[2]; at 12.5 µM
  % reduction of secreted SEAP activity: 0 (12.5 µM) %
[3]
  IC50: 13 µM

## CCOCCCNC(=O)c1cc(NC(=O)Nc2cccc(Cl)c2)ccc1N(C)C [Compound A3]
[2]; at 3 µM
  % reduction of secreted SEAP activity: 23 (3 µM) %
[3]
  IC50: 2.6 µM

## COCCCNC(=O)c1cc(NC(=O)Nc2cc(C(F)(F)F)cc(C(F)(F)F)c2)ccc1N(C)C [Compound A2]
[1]
  IC50: 284 µM
[2]; at 3 µM
  % reduction of secreted SEAP activity: 27 (3 µM) %
[3]
  IC50: 3.2 µM

## COCCCNC(=O)c1cc(NC(=O)Nc2cccc(Br)c2)ccc1N(C)C [Compound A13]
[1]; at 100 µM
  % reduction of the activity of BACE: 37 (100 µM) %
[2]; at 3 µM
  % reduction of secreted SEAP activity: 25 (3 µM) %
[3]
  IC50: 3.8 µM

## COCCNC(=O)c1cc(NC(=O)Nc2cccc(C)c2)ccc1N(C)C [Compound A7]
[1]; at 100 µM
  % reduction of the activity of BACE: 0 (100 µM) %
[2]; at 12.5 µM
  % reduction of secreted SEAP activity: 0 (12.5 µM) %
[3]
  IC50: 12.9 µM

## Cc1cc(C)cc(NC(=O)NCc2nnc(SCc3ccccc3)n2C)c1 [Compound B1]
[1]; at 500 µM
  % reduction of the activity of BACE: 0 (500 µM) %
[2]; at 50 µM
  % reduction of secreted SEAP activity: 0 (50 µM) %
[3]
  IC50: 18 µM

## CN(C)c1nc(OCCNC(=O)Nc2ccccc2)nc(N2CCCCC2)n1 [Compound C4]
[1]; at 500 µM
  % reduction of the activity of BACE: 0 (500 µM) %
[2]; at 12.5 µM
  % reduction of secreted SEAP activity: 0 (12.5 µM) %
[3]; at 12.5 µM, Swedish APP695 transgenic HEK293 cells
  % reduction of Aβ1-40 secretion: 31 (12.5 µM) %

## COCCCNC(=O)c1cc(NC(=O)Nc2cccc(OC)c2)ccc1N(C)C [Compound A4]
[1]; at 100 µM
  % reduction of the activity of BACE: 33 (100 µM) %
[2]; at 6 µM
  % reduction of secreted SEAP activity: 21 (6 µM) %
[3]
  IC50: 7.5 µM

## CCNc1nc(NC(C)(C)C)nc(OCCNC(=O)Nc2ccccc2)n1 [Compound C5]
[1]; at 500 µM
  % reduction of the activity of BACE: 0 (500 µM) %
[2]; at 25 µM
  % reduction of secreted SEAP activity: 0 (25 µM) %
[3]
  IC50: 10 to 20 µM

## CN(C)c1ccc(NC(=O)Nc2cc(C(F)(F)F)cc(C(F)(F)F)c2)cc1C(=O)NCc1ccc(F)cc1 [Compound A12]
[1]
  IC50: 131 µM
[2]; at 1.6 µM
  % reduction of secreted SEAP activity: 14 (1.6 µM) %
[3]
  IC50: 4.2 µM

## COCCCNC(=O)c1cc(NC(=O)Nc2ccc(Cl)c(Cl)c2)ccc1N(C)C [Compound A9]
[1]
  IC50: 46 µM
[2]; at 3 µM
  % reduction of secreted SEAP activity: 17 (3 µM) %
[3]
  IC50: 5.9 µM

## CN(C)c1ccc(NC(=O)Nc2cc(C(F)(F)F)cc(C(F)(F)F)c2)cc1C(=O)NCCCN1CCOCC1 [Compound A1]
[2]
  IC50: 3.5 µM
[3]
  IC50: 3 µM
